In patent US5488134A, “Preparation of compounds of lignan series” (Shionogi & Co., Ltd., priority 1993, dated 1996):

Experiments:
LDL = experiment: Inhibitory Action against Oxidative Modification of LDL (Cu2+-induced, TBA reactive substances); type: biochemical, New Zealand White rabbits; details: rabbit LDL 0.2 mg protein/ml, cupric sulfate 0.5 μM Cu2+, 37° C., 24 hours, read-out: LDL-Oxidation Inhibiting IC50
Experimental: Inhibitory Action against Oxidative Modification of LDL
Experiments were conducted as follows according to the method of Kita, et al. described in proceedings of the National Academy of Sciences, USA, volume 84, pages 5928 (1987).
First, LDL was separated from the blood of New Zealand White rabbits fed with a feed containing 0.5% of cholesterol for three weeks and dissolved in phosphate-buffered physiological saline (final LDL concentration: 0.2 mg protein/ml). To this was added an ethanolic solution of each test compound, then cupric sulfate was added thereto (final Cu^2+ concentration: 0.5 μM) and the mixture was incubated at 37° C. for 24 hours.
The amount of lipid peroxides in each of the incubated solutions was measured as thiobarbituric acid reacting substances (TBA reactive substances) and, from the regression line of the inhibitory rate for oxidative modification of LDL and the concentration of the compound, the 50% inhibiting concentration (IC50) was calculated. Quantitative determination of the TBA reactive substances was conducted by measuring the TBA reactive substances in the supernatant (prepared by removing protein from the incubated solution) by means of TBA method.

[1] = Cholesterol-lowering Action in cholesterol-fed mice; type: in vivo; details: male ICR mice, feed with 1% cholesterol and 0.5% sodium cholate, 0.12% test compound in feed, seven days; for (VLDL + LDL) Cholesterol Lowering Rate: total minus HDL cholesterol; for Total Cholesterol Lowering Rate: serum
Experimental: Cholesterol-lowering Action
Male ICR mice (body weight: 30-40 grams) were freely fed for seven days with a feed containing 1% of cholesterol and 0.5% of sodium cholate to which 0.12% of the test compound was added (no such a compound was added for the control group), then blood was collected from the mice and the total cholesterol in serum was measured by the method of Allain described in Clinical Chemistry, volume 20, page 470 (1974).
Total amount of VLDL cholesterol and LDL cholesterol was calculated by subtracting the amount of HDL cholesterol from the amount of total cholesterol. The amount of the HDL cholesterol was measured by the method of Ash and Hentschel described in Clinical Chemistry, volume 24, page 2180 (1978).
Cholesterol lowering action of the test compound was evaluated from the cholesterol lowering rate calculated from the following expressions. [formula]

Structure (SMILES) | IC50 (LDL) [nM] | (VLDL + LDL) Cholesterol Lowering Rate [1] [%] | Total Cholesterol Lowering Rate [1] [%]
COC(=O)c1c(C(=O)c2ccc(C(F)(F)F)cc2)c(O)c2cc(OC)c(OC)c(OC)c2c1-c1ccc(OC)c(OC)c1 [Example 1, 1-(3,4-Dimethoxyphenyl)-4-hydroxy-2-(methoxycarbonyl)-3-[4-(trifluoromethyl)benzoyl]-6,7,8-trimethoxynaphthalene] | 1520 | 61 | 22
COC(=O)c1c(C(=O)c2ccc(Cl)cc2)c(O)c2cc(OC)c(OC)c(OC)c2c1-c1ccc(OC)c(OC)c1 [Example 2, 3-(4-Chlorobenzoyl)-1-(3,4-dimethoxyphenyl)-4-hydroxy-2-(methoxycarbonyl)-6,7,8-trimethoxynaphthalene] | 1420 | 74 | 28
